{"source": "patent US12090156B2", "about": "“Application of CB-839 in preparation of drug for inhibiting corneal neovascularization (CNV)” (Institute of Ophthalmology Affiliated to Shandong First …, priority 2022, dated 2024)", "origin": "cited, not measured here", "test_system": "cancer cell lines such as triple-negative breast cancer (TNBC), lung adenocarcinoma, chondrosarcoma, and lymphoma cell lines", "data": [{"smiles": "O=C(Cc1cccc(OC(F)(F)F)c1)Nc1ccc(CCCCc2nnc(NC(=O)Cc3ccccn3)s2)nn1", "note": "[CB-839]", "values": [{"measurement": "antiproliferative activity", "result": "significant antiproliferative activity"}]}]}
